Source: US20220088016A1, “CANCER TREATMENT USING MULTI-TARGETED KINASE INHIBITOR IN COMBINATION OF PROTEIN KINASE BIOMARKERS” (ZHEJIANG CROWNMAB BIOTECH CO. LTD., priority 2019, published 2022)

Experiments:
[1] = biological target: EPHA7 (Homo sapiens, UniProt Q15375); experiment: Kinase profiling; format: binding; conditions: read-out: % Ctrl @ 1000 nM
[2] = biological target: PIK3CA (Q546K) (Homo sapiens, UniProt P42336, Q546K); experiment: Kinase profiling; format: binding; conditions: read-out: % Ctrl @ 1000 nM
[3] = biological target: ULK3 (Homo sapiens, UniProt Q6PHR2); experiment: Kinase profiling; format: binding; conditions: read-out: % Ctrl @ 1000 nM
Sequence of ULK3 (Q6PHR2 whole entry): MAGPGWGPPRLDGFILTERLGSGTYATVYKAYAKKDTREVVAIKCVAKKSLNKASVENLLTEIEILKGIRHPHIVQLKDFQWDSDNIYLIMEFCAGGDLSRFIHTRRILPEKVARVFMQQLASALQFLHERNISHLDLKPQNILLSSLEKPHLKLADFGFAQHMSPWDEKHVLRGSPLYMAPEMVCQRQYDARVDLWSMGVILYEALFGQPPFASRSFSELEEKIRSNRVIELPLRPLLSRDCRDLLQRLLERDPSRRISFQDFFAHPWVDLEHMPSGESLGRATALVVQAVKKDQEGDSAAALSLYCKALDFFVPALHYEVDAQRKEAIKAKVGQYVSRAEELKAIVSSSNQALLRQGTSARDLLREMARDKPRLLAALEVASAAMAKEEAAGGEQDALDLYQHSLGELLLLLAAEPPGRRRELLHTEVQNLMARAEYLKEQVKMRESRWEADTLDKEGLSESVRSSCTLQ

[4] = biological target: T1, Abl (h) (Homo sapiens, UniProt P00519); experiment: Kinase IC50 (Eurofins KinaseProfiler); format: biochemical
T1 construct: purchased Eurofins
Experimental: (§1) CBT-102 were tested against each of the selected kinases using the Eurofins standard KinaseProfder assays and following the relevant standard operating procedures. The required volume of the 50× stock of test compound (CBT-102) was added to the assay well, before a reaction mix containing the enzyme and substrate was added. The reaction was initiated by the addition of ATP at the selected concentration. There was no pre-incubation of the compound with the enzyme/substrate mix prior to ATP addition.
(§2) Data are handled using a custom-built in-house analysis software. Results are expressed as kinase activity remaining, as a percentage of the DMSO control. This is calculated using the following formula: […]
(§3) For IC50 determinations, data are analyzed using XLFit version 5.3 (ID Business Solutions).

[5] = biological target: T2, Aurora-A (h) (Homo sapiens, UniProt O14965); experiment: Kinase IC50 (Eurofins KinaseProfiler); format: biochemical
T2 construct: purchased Eurofins
T2 sequence (O14965 whole entry): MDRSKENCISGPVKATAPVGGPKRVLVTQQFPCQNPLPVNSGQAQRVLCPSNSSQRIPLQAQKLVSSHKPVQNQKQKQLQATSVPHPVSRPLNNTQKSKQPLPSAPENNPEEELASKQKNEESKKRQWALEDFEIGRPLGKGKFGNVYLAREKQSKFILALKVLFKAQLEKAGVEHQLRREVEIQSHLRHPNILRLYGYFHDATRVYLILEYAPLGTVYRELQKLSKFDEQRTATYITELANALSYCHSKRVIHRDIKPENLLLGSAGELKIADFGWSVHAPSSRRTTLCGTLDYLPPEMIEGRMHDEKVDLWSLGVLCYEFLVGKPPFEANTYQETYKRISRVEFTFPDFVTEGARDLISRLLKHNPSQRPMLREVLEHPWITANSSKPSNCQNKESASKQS
Experimental: as §1, §2, §3

[6] = biological target: T3, Aurora-B (h) (Homo sapiens, UniProt Q96GD4); experiment: Kinase IC50 (Eurofins KinaseProfiler); format: biochemical
T3 construct: purchased Eurofins
Experimental: as §1, §2, §3

[7] = biological target: T4, BRK (h) (Homo sapiens, UniProt Q13882); experiment: Kinase IC50 (Eurofins KinaseProfiler); format: biochemical
T4 construct: purchased Eurofins
Experimental: as §1, §2, §3

[8] = biological target: T5, CDK2/cyclinE (h) (Homo sapiens, UniProt P24941); experiment: Kinase IC50 (Eurofins KinaseProfiler); format: biochemical
T5 construct: purchased Eurofins (KinaseProfiler service)
Experimental: as §1, §2, §3

[9] = biological target: T6, CDK4/cyclinD3 (h) (Homo sapiens, UniProt P11802); experiment: Kinase IC50 (Eurofins KinaseProfiler); format: biochemical
T6 construct: purchased Eurofins (KinaseProfiler service)
Experimental: as §1, §2, §3

[10] = biological target: T7, CDKL2 (h) (Homo sapiens, UniProt Q92772); experiment: Kinase IC50 (Eurofins KinaseProfiler); format: biochemical
T7 construct: purchased Eurofins (KinaseProfiler service)
Experimental: as §1, §2, §3

[11] = biological target: T8, CDKL3 (h) (Homo sapiens, UniProt Q8IVW4); experiment: Kinase IC50 (Eurofins KinaseProfiler); format: biochemical
T8 construct: purchased Eurofins (KinaseProfiler service)
Experimental: as §1, §2, §3

[12] = biological target: T9, CSK (h) (Homo sapiens, UniProt P41240); experiment: Kinase IC50 (Eurofins KinaseProfiler); format: biochemical
T9 construct: purchased Eurofins (KinaseProfiler service)
Experimental: as §1, §2, §3

[13] = biological target: T10, EphA1 (h) (Homo sapiens, UniProt P21709); experiment: Kinase IC50 (Eurofins KinaseProfiler); format: biochemical
T10 construct: purchased Eurofins (KinaseProfiler service)
Experimental: as §1, §2, §3

[14] = biological target: T11, EphB2 (h) (Homo sapiens, UniProt P29323); experiment: Kinase IC50 (Eurofins KinaseProfiler); format: biochemical
T11 construct: purchased Eurofins (KinaseProfiler service)
Experimental: as §1, §2, §3

[15] = biological target: T12, EphB3 (h) (Homo sapiens, UniProt P54753); experiment: Kinase IC50 (Eurofins KinaseProfiler); format: biochemical
T12 construct: purchased Eurofins (KinaseProfiler service)
Experimental: as §1, §2, §3

[16] = biological target: T13, FAK (h) (Homo sapiens, UniProt Q05397); experiment: Kinase IC50 (Eurofins KinaseProfiler); format: biochemical
T13 construct: purchased Eurofins (KinaseProfiler service)
Experimental: as §1, §2, §3

[17] = biological target: T14, FGFR1 (h) (Homo sapiens, UniProt P11362); experiment: Kinase IC50 (Eurofins KinaseProfiler); format: biochemical
T14 construct: purchased Eurofins (KinaseProfiler service)
Experimental: as §1, §2, §3

[18] = biological target: T15, FGFR2 (h) (Homo sapiens, UniProt P21802); experiment: Kinase IC50 (Eurofins KinaseProfiler); format: biochemical
T15 construct: purchased Eurofins (KinaseProfiler service)
T15 sequence (P21802 22-821): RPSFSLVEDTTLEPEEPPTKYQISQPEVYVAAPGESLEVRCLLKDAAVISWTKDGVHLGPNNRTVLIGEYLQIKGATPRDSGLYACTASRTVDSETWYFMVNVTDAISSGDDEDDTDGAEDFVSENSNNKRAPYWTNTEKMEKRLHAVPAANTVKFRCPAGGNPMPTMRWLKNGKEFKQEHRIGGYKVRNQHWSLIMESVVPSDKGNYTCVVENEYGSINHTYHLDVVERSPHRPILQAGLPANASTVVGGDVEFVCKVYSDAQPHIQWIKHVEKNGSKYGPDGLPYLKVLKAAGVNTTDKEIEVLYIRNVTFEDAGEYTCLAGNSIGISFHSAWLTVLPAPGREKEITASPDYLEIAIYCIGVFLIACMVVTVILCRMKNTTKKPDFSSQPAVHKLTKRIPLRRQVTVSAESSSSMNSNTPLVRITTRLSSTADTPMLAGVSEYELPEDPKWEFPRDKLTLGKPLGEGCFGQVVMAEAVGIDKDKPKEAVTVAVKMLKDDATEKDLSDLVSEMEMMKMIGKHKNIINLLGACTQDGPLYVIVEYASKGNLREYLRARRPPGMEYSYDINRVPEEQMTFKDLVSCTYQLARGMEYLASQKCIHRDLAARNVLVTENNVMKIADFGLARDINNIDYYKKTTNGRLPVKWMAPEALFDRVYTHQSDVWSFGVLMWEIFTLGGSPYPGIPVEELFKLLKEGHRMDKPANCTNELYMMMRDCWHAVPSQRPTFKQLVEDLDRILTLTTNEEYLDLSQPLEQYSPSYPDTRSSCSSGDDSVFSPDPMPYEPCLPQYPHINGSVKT
Experimental: as §1, §2, §3

[19] = biological target: T16, Flt3 (h) (Homo sapiens, UniProt P36888); experiment: Kinase IC50 (Eurofins KinaseProfiler); format: biochemical
T16 construct: purchased Eurofins (KinaseProfiler service)
T16 sequence (P36888 27-993): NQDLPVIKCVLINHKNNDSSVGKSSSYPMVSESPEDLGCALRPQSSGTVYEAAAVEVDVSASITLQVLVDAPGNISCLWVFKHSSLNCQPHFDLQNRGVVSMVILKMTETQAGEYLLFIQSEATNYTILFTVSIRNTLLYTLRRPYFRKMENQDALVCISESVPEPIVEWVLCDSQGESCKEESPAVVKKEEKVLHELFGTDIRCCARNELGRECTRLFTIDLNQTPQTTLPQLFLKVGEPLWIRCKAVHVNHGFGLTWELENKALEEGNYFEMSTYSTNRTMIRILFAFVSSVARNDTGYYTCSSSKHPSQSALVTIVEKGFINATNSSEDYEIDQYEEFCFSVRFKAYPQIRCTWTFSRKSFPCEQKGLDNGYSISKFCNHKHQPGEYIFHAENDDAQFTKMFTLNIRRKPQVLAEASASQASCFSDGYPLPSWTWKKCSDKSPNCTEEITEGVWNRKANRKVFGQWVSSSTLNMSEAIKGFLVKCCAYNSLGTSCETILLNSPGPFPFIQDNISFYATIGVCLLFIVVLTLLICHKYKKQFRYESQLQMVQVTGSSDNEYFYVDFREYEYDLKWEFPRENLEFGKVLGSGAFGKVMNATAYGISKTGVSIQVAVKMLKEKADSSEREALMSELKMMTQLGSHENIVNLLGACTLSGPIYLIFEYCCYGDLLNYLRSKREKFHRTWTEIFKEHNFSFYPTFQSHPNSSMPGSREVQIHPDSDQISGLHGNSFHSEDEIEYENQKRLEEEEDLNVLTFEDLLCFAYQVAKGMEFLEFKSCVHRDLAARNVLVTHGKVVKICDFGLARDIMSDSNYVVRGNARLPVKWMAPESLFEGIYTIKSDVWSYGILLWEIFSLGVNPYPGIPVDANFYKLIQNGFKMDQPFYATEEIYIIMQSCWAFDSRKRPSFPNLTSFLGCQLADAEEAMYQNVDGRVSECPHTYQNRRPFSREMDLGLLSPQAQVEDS
Experimental: as §1, §2, §3

[20] = biological target: T17, IGF-1R (h) (Homo sapiens, UniProt P08069); experiment: Kinase IC50 (Eurofins KinaseProfiler); format: biochemical
T17 construct: purchased Eurofins (KinaseProfiler service)
Experimental: as §1, §2, §3

[21] = biological target: T18, JAK2 (h) (Homo sapiens, UniProt O60674); experiment: Kinase IC50 (Eurofins KinaseProfiler); format: biochemical
T18 construct: purchased Eurofins (KinaseProfiler service)
T18 sequence (O60674 whole entry): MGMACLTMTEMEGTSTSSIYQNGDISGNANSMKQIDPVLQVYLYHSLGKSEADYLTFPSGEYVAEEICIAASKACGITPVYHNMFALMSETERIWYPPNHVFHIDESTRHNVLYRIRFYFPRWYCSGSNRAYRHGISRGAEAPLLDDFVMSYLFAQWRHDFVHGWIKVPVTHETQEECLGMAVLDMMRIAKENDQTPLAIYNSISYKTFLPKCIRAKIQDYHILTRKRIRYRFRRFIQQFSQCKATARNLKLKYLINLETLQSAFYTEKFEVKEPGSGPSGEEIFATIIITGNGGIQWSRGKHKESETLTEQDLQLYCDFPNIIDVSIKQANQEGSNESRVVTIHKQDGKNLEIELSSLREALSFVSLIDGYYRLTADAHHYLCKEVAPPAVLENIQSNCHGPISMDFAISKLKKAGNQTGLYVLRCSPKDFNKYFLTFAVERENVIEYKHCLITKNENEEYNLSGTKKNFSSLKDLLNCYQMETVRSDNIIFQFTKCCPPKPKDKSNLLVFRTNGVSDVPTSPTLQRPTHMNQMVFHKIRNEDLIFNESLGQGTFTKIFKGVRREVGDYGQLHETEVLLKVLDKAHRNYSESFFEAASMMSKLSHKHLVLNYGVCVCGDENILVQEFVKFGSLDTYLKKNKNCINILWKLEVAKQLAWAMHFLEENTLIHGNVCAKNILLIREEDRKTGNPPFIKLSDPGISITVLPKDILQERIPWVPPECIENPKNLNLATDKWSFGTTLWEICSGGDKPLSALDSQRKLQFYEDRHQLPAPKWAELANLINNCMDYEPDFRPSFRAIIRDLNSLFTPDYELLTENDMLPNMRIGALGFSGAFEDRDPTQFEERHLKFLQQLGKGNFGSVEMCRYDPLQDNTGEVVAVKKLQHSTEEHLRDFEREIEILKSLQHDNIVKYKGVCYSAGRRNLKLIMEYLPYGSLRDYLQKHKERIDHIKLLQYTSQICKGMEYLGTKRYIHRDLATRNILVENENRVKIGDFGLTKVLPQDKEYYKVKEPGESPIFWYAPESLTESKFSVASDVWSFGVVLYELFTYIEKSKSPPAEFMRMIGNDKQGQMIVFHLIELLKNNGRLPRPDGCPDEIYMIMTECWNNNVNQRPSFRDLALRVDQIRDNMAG
Experimental: as §1, §2, §3

[22] = biological target: T19, KDR (h) (Homo sapiens, UniProt P35968); experiment: Kinase IC50 (Eurofins KinaseProfiler); format: biochemical
T19 construct: purchased Eurofins (KinaseProfiler service)
Experimental: as §1, §2, §3

[23] = biological target: T20, MAP4K4 (h) (Homo sapiens, UniProt O95819); experiment: Kinase IC50 (Eurofins KinaseProfiler); format: biochemical
T20 construct: purchased Eurofins (KinaseProfiler service)
T20 sequence (O95819 whole entry): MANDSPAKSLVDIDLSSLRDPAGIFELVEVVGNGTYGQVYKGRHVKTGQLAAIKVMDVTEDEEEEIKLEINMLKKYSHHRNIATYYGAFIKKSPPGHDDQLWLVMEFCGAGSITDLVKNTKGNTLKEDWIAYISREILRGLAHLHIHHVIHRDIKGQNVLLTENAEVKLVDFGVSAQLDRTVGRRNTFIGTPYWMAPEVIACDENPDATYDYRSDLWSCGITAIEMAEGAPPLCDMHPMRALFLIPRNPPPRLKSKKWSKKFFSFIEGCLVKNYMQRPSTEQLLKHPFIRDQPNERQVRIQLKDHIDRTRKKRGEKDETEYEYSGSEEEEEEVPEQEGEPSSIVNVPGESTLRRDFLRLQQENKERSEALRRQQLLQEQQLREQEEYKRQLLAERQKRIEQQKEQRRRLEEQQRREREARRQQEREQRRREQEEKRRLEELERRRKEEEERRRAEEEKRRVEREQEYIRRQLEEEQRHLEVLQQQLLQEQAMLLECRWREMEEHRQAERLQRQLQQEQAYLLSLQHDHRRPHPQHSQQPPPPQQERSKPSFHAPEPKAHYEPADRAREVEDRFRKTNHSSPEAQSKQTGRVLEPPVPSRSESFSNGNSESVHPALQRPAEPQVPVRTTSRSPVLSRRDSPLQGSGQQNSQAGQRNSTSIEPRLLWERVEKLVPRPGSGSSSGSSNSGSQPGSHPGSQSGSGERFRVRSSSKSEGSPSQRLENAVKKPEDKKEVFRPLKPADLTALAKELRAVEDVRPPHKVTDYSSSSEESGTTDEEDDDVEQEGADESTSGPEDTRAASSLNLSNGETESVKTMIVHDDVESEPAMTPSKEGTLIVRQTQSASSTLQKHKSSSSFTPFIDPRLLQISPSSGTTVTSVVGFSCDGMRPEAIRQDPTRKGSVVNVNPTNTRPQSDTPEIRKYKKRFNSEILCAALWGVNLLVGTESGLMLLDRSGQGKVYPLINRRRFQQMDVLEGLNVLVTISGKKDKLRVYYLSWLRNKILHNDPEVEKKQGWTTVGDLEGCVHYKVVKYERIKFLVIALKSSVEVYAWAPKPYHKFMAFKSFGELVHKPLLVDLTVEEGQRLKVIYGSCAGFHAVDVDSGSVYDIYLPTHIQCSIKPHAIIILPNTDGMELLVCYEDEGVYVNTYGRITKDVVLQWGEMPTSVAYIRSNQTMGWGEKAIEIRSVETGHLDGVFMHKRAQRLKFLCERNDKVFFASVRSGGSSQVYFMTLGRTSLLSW
Experimental: as §1, §2, §3

[24] = biological target: T21, MAP4K5 (h) (Homo sapiens, UniProt Q9Y4K4); experiment: Kinase IC50 (Eurofins KinaseProfiler); format: biochemical
T21 construct: purchased Eurofins (KinaseProfiler service)
Experimental: as §1, §2, §3

[25] = biological target: T22, MLK1 (h) (Homo sapiens, UniProt P80192); experiment: Kinase IC50 (Eurofins KinaseProfiler); format: biochemical
T22 construct: purchased Eurofins (KinaseProfiler service)
Experimental: as §1, §2, §3

[26] = biological target: T23, MuSK (h) (Homo sapiens, UniProt O15146); experiment: Kinase IC50 (Eurofins KinaseProfiler); format: biochemical
T23 construct: purchased Eurofins (KinaseProfiler service)
Experimental: as §1, §2, §3

[27] = biological target: T24, PTK5 (h) (Homo sapiens, UniProt P42685); experiment: Kinase IC50 (Eurofins KinaseProfiler); format: biochemical
T24 construct: purchased Eurofins
Experimental: as §1, §2, §3

[28] = biological target: T25, Pim-1 (h) (Homo sapiens, UniProt P11309); experiment: Kinase IC50 (Eurofins KinaseProfiler); format: biochemical
T25 construct: purchased Eurofins
Experimental: as §1, §2, §3

[29] = biological target: T26, PrKX (h) (Homo sapiens, UniProt P51817); experiment: Kinase IC50 (Eurofins KinaseProfiler); format: biochemical
T26 construct: purchased Eurofins
Experimental: as §1, §2, §3

[30] = biological target: T27, Ret (V804M) (h) (Homo sapiens, UniProt P07949, V804M); experiment: Kinase IC50 (Eurofins KinaseProfiler); format: biochemical
T27 construct: purchased Eurofins
Experimental: as §1, §2, §3

[31] = biological target: T28, SAPK2b (h) (Homo sapiens, UniProt Q15759); experiment: Kinase IC50 (Eurofins KinaseProfiler); format: biochemical
T28 construct: purchased Eurofins
Experimental: as §1, §2, §3

[32] = biological target: T29, SAPK3 (h) (Homo sapiens, UniProt P53778); experiment: Kinase IC50 (Eurofins KinaseProfiler); format: biochemical
T29 construct: purchased Eurofins
Experimental: as §1, §2, §3

[33] = biological target: T30, SAPK4 (h) (Homo sapiens, UniProt O15264); experiment: Kinase IC50 (Eurofins KinaseProfiler); format: biochemical
T30 construct: purchased Eurofins
Experimental: as §1, §2, §3

[34] = biological target: T31, TAK1 (h) (Homo sapiens, UniProt O43318); experiment: Kinase IC50 (Eurofins KinaseProfiler); format: biochemical
T31 construct: purchased Eurofins
Experimental: as §1, §2, §3

[35] = biological target: T32, Wee1 (h) (Homo sapiens, UniProt P30291); experiment: Kinase IC50 (Eurofins KinaseProfiler); format: biochemical
T32 construct: purchased Eurofins
Experimental: as §1, §2, §3

Cc1cc(Oc2cc(NC(=O)C3CC3)ncn2)ccc1NC(=O)Nc1ccc(Cl)c(C(F)(F)F)c1 [CBT-102]
remaining activity at 1 µM [1]: 4.1%
remaining activity at 1 µM [2]: 100%
remaining activity at 1 µM [3]: 88%
IC50 [4]: 1830 nM
IC50 [5]: 1770 nM
IC50 [6]: 525 nM
IC50 [7]: > 10000 nM
IC50 [8]: > 10000 nM
IC50 [9]: > 10000 nM
IC50 [10]: 37 nM
IC50 [11]: > 10000 nM
IC50 [12]: > 10000 nM
IC50 [13]: 1110 nM
IC50 [14]: 418 nM
IC50 [15]: > 10000 nM
IC50 [16]: > 10000 nM
IC50 [17]: 410 nM
IC50 [18]: 596 nM
IC50 [19]: 1090 nM
IC50 [20]: > 10000 nM
IC50 [21]: > 10000 nM
IC50 [22]: 25 nM
IC50 [23]: 763 nM
IC50 [24]: 24 nM
IC50 [25]: 6060 nM
IC50 [26]: 278 nM
IC50 [27]: 52 nM
IC50 [28]: > 10000 nM
IC50 [29]: > 10000 nM
IC50 [30]: 693 nM
IC50 [31]: 70 nM
IC50 [32]: 1200 nM
IC50 [33]: 228 nM
IC50 [34]: 481 nM
IC50 [35]: > 10000 nM
